The text below walks through data of ChEMBL document CHEMBL6177952, “Exploring chloro-isoxazole compounds inspired on tetrahydrofuran neolignans as promising antileishmanial agents” (Eur J Med Chem, 2025).

Activity calls are given as the source filed them. No cut-off for these calls is given here.

Data set [1] can be described thus: Mutagenicity in Salmonella typhimurium TA100 assessed as number of revertant colonies per plate at 5000 microg/ml by Ames test. It is filed as toxicity. The conditions noted are these: salmonella enterica subsp. enterica serovar typhimurium; dose 5000 µg/ml.
Data set [2] has as its system Leishmania amazonensis. The data set is described as follows: Antileishmanial activity against leishmania amazonensis infected in BALB/c mouse assessed as reduction in footpad swelling at 5 mg/kg, ILES measured at week 5. The settings on record: time 5.0 weeks. In kind it is functional, organism-based.
The subject of data set [3] is Leishmania amazonensis. As to the kind of experiment: Antileishmanial activity against Leishmania amazonensis promastigotes assessed as early apoptotic parasites at 38.1 uM incubated for 48 hrs by Annexin V/7-AAD staining based flow cytometry analysis relative to control. In kind it is functional.
The test system of data set [4] is Leishmania amazonensis. The data set is described as follows: Antileishmanial activity against leishmania amazonensis infected in BALB/c mouse assessed as reduction in parasitism in draining lymph node at 5 mg/kg, ILES measured after 65 days post infection by limiting dilution assay. In kind it is functional, organism-based. The settings on record: time 65.0 day.

Data set [5] has as its system Leishmania amazonensis. As to the kind of experiment: Antileishmanial activity against Leishmania amazonensis promastigotes assessed as necrotic parasites at 38.1 uM incubated for 24 hrs by Annexin V/7-AAD staining based flow cytometry analysis relative to control. It is filed as functional.
Data set [6] has as its system Leishmania amazonensis. The data set is described as follows: Antileishmanial activity against Leishmania amazonensis promastigotes assessed as late apoptotic parasites at 38.1 uM incubated for 48 hrs by Annexin V/7-AAD staining based flow cytometry analysis relative to control. It is filed as functional. For orientation: A flow cytometer gives signals particle by particle.

Data set [7] in a line: Mutagenicity in Salmonella typhimurium TA100 assessed as number of revertant colonies per plate at 500 microg/ml by Ames test. The settings on record: salmonella enterica subsp. enterica serovar typhimurium; dose 500 µg/ml. In kind it is toxicity. A general note: The Ames test detects mutagens through reverse mutation in bacteria.
The test system of data set [8] is Leishmania amazonensis. As to the kind of experiment: Antileishmanial activity against Leishmania amazonensis promastigotes assessed as early apoptotic parasites at 38.1 uM incubated for 72 hrs by Annexin V/7-AAD staining based flow cytometry analysis relative to control. It is filed as functional.
A short description of data set [9]: Mutagenicity in Salmonella typhimurium TA102 assessed as number of revertant colonies per plate at 5000 microg/ml by Ames test. The settings on record: salmonella enterica subsp. enterica serovar typhimurium; dose 5000 µg/ml. It is filed as toxicity.
Data set [10] has as its system Leishmania amazonensis. As to the kind of experiment: Antileishmanial activity against leishmania amazonensis IFLA/BR/1967/PH8 intracellular amastigote infected in mouse Peritoneal macrophage incubated for 24 hrs. It is filed as functional, organism-based. The settings on record: IFLA/BR/1967/PH8, Peritoneal macrophage.
Data set [11] in a line: Mutagenicity in Salmonella typhimurium TA102 assessed as number of revertant colonies per plate at 50 microg/ml in presence of S9 fraction by Ames test. In kind it is toxicity, subcellular. The conditions noted are these: salmonella enterica subsp. enterica serovar typhimurium, dose 50 µg/ml.
In data set [12] the test system is Leishmania amazonensis. The data set is described as follows: Antileishmanial activity against Leishmania amazonensis promastigotes assessed as late apoptotic parasites at 38.1 uM incubated for 72 hrs by Annexin V/7-AAD staining based flow cytometry analysis relative to control. It is filed as functional.

A word on the IC50: it is the concentration that inhibits the measured activity by half. Read a low IC50 as higher potency. For `COc1cc(-c2cc(-c3ccc4c(c3)OCO4)on2)c(Cl)c(OC)c1OC`, the Activity came out at 114 revertants/plate in data set [1]; 3.6% in the data set on Leishmania amazonensis [3]; 0.3% with Leishmania amazonensis [5]; 0.6% with Leishmania amazonensis [6]; 2.4% in the data set on Leishmania amazonensis [8]; 204 revertants/plate in [11]. Moreover, in the data set with Leishmania amazonensis [12], the Activity stood at 1.9%. Further, the outcome in the data set on Leishmania amazonensis [2] and in the data set on Leishmania amazonensis [4] was Active. Moreover, the revertant count in data set [7] came to 123 revertants/plate; in [9] it was 194 revertants/plate. This compound displayed an IC50 with Leishmania amazonensis [10] of 2200 nM.
